Calls of active or inactive are those of the source. No cut-off for these calls is given here.
Columns and labels:
MDA-MB-231 [1] = assay: Induction of apoptosis in human MDA-MB-231 cells assessed as increase in Bax expression at 0.5 to 3 times of IC50 concentration by Western blot analysis; type: functional, cell-based
[2] = Toxicity in Balb/c mouse xenografted with mouse 4T1 cells assessed as spleen lesions at 200 mg/kg administered topically over the tumor surface every two days for 14 days in the presence of cyanoacrylate by H&E staining based histopathological analysis; type: organism-based; details: in vivo, topical_or_ocular, 336 h, route top, time 14 day
MDA-MB-231 [3] = assay: Induction of apoptosis in human MDA-MB-231 cells assessed as increase in caspase 3 expression at 1 uM incubated for 24 hrs by Western blot analysis; type: functional, cell-based
[4] = Toxicity in Balb/c mouse implanted with mouse 4T1 cells assessed as heart lesions at 50 mg/kg administered intratumorally every four days for 14 days in the presence of liquid cyanoacrylate by H&E staining based histopathological analysis; type: organism-based; details: in vivo, other, 336 h, route it(Intratumoral), time 14 day
4T1 [5] = assay: Antitumor activity against mouse 4T1 cells xenografted in Balb/c mouse assessed as tumor growth inhibition at 50 mg/kg administered intratumorally every four days for 14 days; type: functional; parameters: scale not given: the % may be the effect or the level left; details: route it(Intratumoral), time 14 day
[6] = Toxicity in Balb/c mouse implanted with mouse 4T1 cells assessed as spleen lesions at 50 mg/kg administered intratumorally every four days for 14 days in the presence of liquid cyanoacrylate by H&E staining based histopathological analysis; type: organism-based; details: in vivo, other, 336 h, route it(Intratumoral), time 14 day
4T1 [7] = assay: Antitumor activity against mouse 4T1 cells xenografted in Balb/c mouse assessed as tumor growth inhibition at 200 mg/kg administered topically over the tumor surface every two days for 14 days in the presence of cyanoacrylate relative to control; type: functional; details: 4T1, 336 h, route top, time 14 day, read-out: TGI
[8] = Acute toxicity in mouse assessed as death rate ratio at 600 mg/kg, ip measured over 14 days; type: organism-based; details: in vivo, 336 h, time 14 day
MDA-MB-231 [9] = assay: Induction of apoptosis in human MDA-MB-231 cells assessed as increase in Bcl-2 protein expression at 1 uM incubated for 24 hrs by Western blot analysis; type: functional, cell-based
[10] = Drug metabolism in Balb/c mouse kidney implanted with mouse 4T1 cells assessed as 2-methyl hydroxylation of parent compound causing metabolite formation by LC-MS analysis; type: ADME, tissue-based
[11] = Toxicity in Balb/c mouse implanted with mouse 4T1 cells assessed as liver lesions at 50 mg/kg administered intratumorally every four days for 14 days in the presence of liquid cyanoacrylate by H&E staining based histopathological analysis; type: organism-based; details: in vivo, other, 336 h, route it(Intratumoral), time 14 day
[12] = Toxicity in Balb/c mouse implanted with mouse 4T1 cells assessed as liver lesions at 50 mg/kg, ip administered every two days for 14 days by H&E staining based histopathological analysis; type: organism-based; details: in vivo, 336 h, time 14 day
[13] = Acute toxicity in mouse assessed as lethal dose measured over 14 days; details: in vivo, 336 h, time 14 day
MDA-MB-231 [14] = assay: Induction of apoptosis in human MDA-MB-231 cells assessed as decrease in Bcl-2 expression at 0.5 to 3 times of IC50 concentration by Western blot analysis; type: functional, cell-based
MDA-MB-231 [15] = assay: Induction of apoptosis in human MDA-MB-231 cells assessed as increase in catalase level at 100 nM incubated for 48 hrs; type: functional, cell-based
[16] = Toxicity in Balb/c mouse implanted with mouse 4T1 cells assessed as effect on body weight at 50 mg/kg administered intratumorally every four days for 14 days in the presence of liquid cyanoacrylate; type: organism-based; details: in vivo, other, 336 h, route it(Intratumoral), time 14 day
[17] = Drug metabolism in Balb/c mouse spleen implanted with mouse 4T1 cells assessed as dechlorination of parent compound causing metabolite formation by LC-MS analysis; type: ADME, tissue-based
[18] = Toxicity in Balb/c mouse implanted with mouse 4T1 cells assessed as lung lesions at 50 mg/kg, ip administered every two days for 14 days by H&E staining based histopathological analysis; type: organism-based; details: in vivo, 336 h, time 14 day
MDA-MB-231 [19] = assay: Induction of apoptosis in human MDA-MB-231 cells assessed as increase in p53 protein expression at 1 uM incubated for 24 hrs by Western blot analysis; type: functional, cell-based
4T1 [20] = assay: Antitumor activity against mouse 4T1 cells implanted in Balb/c mouse assessed as tumor growth inhibition at 50 mg/kg administered intratumorally every four days for 14 days in the presence of liquid cyanoacrylate relative to control; type: functional; details: 4T1, 336 h, route it(Intratumoral), time 14 day, read-out: TGI
MDA-MB-231 [21] = assay: Induction of ROS production in human MDA-MB-231 cells assessed as increase in fluorescence intensity at 1 uM incubated for 24 hrs by DCFH-DA staining based fluorescence analysis; type: functional, cell-based
MDA-MB-231 [22] = assay: Induction of apoptosis in human MDA-MB-231 cells assessed as late apoptotic cells by measuring red fluorescence at 0.01 to 1 uM by PI staining based fluorescence microscopic analysis; type: functional, cell-based; details: dose 0.01-1 µM
4T1 [23] = assay: Antitumor activity aginst mouse 4T1 cells implanted in Balb/c mouse assessed as nuclei disappearance at 50 mg/kg administered intratumorally every four days for 14 days; type: functional, organism-based; details: route it(Intratumoral), time 14.0 day
MDA-MB-231 [24] = assay: Induction of apoptosis in human MDA-MB-231 cells assessed as increase in cytoplasmic vacuoles at 1 uM incubated for 24 hrs by transmission electron microscopic analysis; type: functional, cell-based
MDA-MB-231 [25] = assay: Induction of apoptosis in human MDA-MB-231 cells assessed as increase in pro-caspase 3 level at 100 nM incubated for 48 hrs; type: functional, cell-based
[26] = Toxicity in Balb/c mouse implanted with mouse 4T1 cells assessed as lung lesions at 50 mg/kg administered intratumorally every four days for 14 days by H&E staining based histopathological analysis; type: organism-based; details: in vivo, other, 336 h, route it(Intratumoral), time 14 day
[27] = Toxicity in Balb/c mouse implanted with mouse 4T1 cells assessed as heart lesions at 50 mg/kg, ip administered every two days for 14 days by H&E staining based histopathological analysis; type: organism-based; details: in vivo, 336 h, time 14 day
A549 = assay: Antiproliferative activity against human A549 cells assessed as inhibition of cell growth by MTT assay; type: functional, cell-based
4T1 [28] = assay: Antitumor activity against mouse 4T1 cells implanted in Balb/c mouse assessed as TUNEL positive cells at 50 mg/kg, ip administered every two days for 14 days by TUNEL staining analysis (reference value: 6.55%); type: functional; details: time 14 day
MDA-MB-231 [29] = assay: Induction of apoptosis in human MDA-MB-231 cells assessed as increase in caspase 9 expression at 1 uM incubated for 24 hrs by Western blot analysis; type: functional, cell-based
MDA-MB-231 [30] = assay: Induction of apoptosis in human MDA-MB-231 cells assessed as change in membrane osmotic transport capacity; type: functional, cell-based
MDA-MB-231 [31] = assay: Induction of apoptosis in human MDA-MB-231 cells assessed as nuclear chromatin condensation at 1 uM incubated for 24 hrs by transmission electron microscopic analysis; type: functional, cell-based
[32] = Toxicity in Balb/c mouse implanted with mouse 4T1 cells assessed as kidney lesions at 50 mg/kg administered intratumorally every four days for 14 days in the presence of liquid cyanoacrylate by H&E staining based histopathological analysis; type: organism-based; details: in vivo, other, 336 h, route it(Intratumoral), time 14 day
[33] = Toxicity in Balb/c mouse xenografted with mouse 4T1 cells assessed as kidney lesions at 200 mg/kg administered topically over the tumor surface every two days for 14 days in the presence of cyanoacrylate by H&E staining based histopathological analysis; type: organism-based; details: in vivo, topical_or_ocular, 336 h, route top, time 14 day
[34] = Toxicity in Balb/c mouse implanted with mouse 4T1 cells assessed as effect on body weight at 50 mg/kg administered intratumorally every four days for 14 days; type: organism-based; details: in vivo, other, 336 h, route it(Intratumoral), time 14 day

Compound: Cc1[nH]c2ccccc2c1C1=C(Cl)C(=O)C(Cl)=C(N2CCOCC2)C1=O
- Activity (MDA-MB-231 [1]): Active
- Activity [2]: Non-Toxic
- Activity (MDA-MB-231 [3]): Active
- Activity [4]: Non-Toxic
- Activity (4T1 [5]): 24.6%
- Activity [6]: Non-Toxic
- inhibition in vivo at 200 mg/kg (4T1 [7]): 38%
- Ratio [8]: 1
- Activity (MDA-MB-231 [9]): Active
- Drug metabolism [10]: Metabolite_Detected
- Activity [11]: Non-Toxic
- Activity [12]: Non-Toxic
- LD50 [13]: 374 mg/kg
- Activity (MDA-MB-231 [14]): Active
- Activity (MDA-MB-231 [15]): Active
- Activity [16]: Non-Toxic
- Drug metabolism [17]: Metabolite_Detected
- Activity [18]: Non-Toxic
- Activity (MDA-MB-231 [19]): Active
- inhibition in vivo at 50 mg/kg (4T1 [20]): 49.8%
- Activity (MDA-MB-231 [21]): Active
- Activity (MDA-MB-231 [22]): Active
- Activity (4T1 [23]): Active
- Activity (MDA-MB-231 [24]): Active
- Activity (MDA-MB-231 [25]): Active
- Activity [26]: Non-Toxic
- Activity [27]: Non-Toxic
- IC50 (A549): 210 nM
- Activity (4T1 [28]): 19.64%
- Activity (MDA-MB-231 [29]): Active
- Activity (MDA-MB-231 [30]): Active
- Activity (MDA-MB-231 [31]): Active
- Activity [32]: Non-Toxic
- Activity [33]: Non-Toxic
- Activity [34]: Non-Toxic

— ChEMBL document CHEMBL5137015, “Design, synthesis, and evaluation of a novel series of mono-indolylbenzoquinones derivatives for the potential treatment of breast cancer” (Eur J Med Chem, 2022)
